Data published in patent US20260174875A1 (Novo Nordisk A/S, priority 2023, published 2026).
Like-named read-outs stand apart in the source and are kept apart here. Numbered stars: 1 amine (or outer) side, 2 acyl side, 3 side chain; on linkers, the order of the positions; unused ones are H or OH. Square brackets hold non-standard residues; d marks the D form. Side chains are listed from the residue outwards. * marks the point of attachment. C18 diacid = O=C(O)CCCCCCCCCCCCCCCCC(=O)*; γGlu = O=C(O)[C@H](CCC(=O)[*:2])N[*:1]; AEEA = NCCOCCOCC(=O)O; Aib = CC(C)(N)C(=O)O

Key:
[1] = Chemical stability assessment in formulation (UPLC-UV-MS purity loss at 37° C.); type: physicochemical; settings: 8 mM phosphate buffer pH 7.4, 1 mg/mL, 2 weeks
Experimental: The assay was performed to investigate the extend of chemical degradation in vitro over time upon incubation at 37° C. for a period of 2 weeks.
Peptide solutions were prepared by dissolving freeze-dried powder in 8 mM phosphate buffer pH 7.4 to a target of 1 mg/mL. The pH of peptide solutions was adjusted to 7.4 with 0.02 M HCl or 0.02 M NaOH. Samples were filled in Agilent HPLC vials with fixed insert. Vials were capped to prevent evaporation. The HPLC vials were incubated at 37° C. and samples were withdrawn at different time points over a period of 2 weeks, flash frozen at −80° C., and stored at −20° C. until analysis.
A flow-rate of 100 μL/min was delivered with a Binary solvent manager pump having 0.1% formic acid in water as solvent A and 0.1% formic acid in acetonitrile as solvent B. Gradient elution was carried out using 20% B from 0 to 2 min followed by 20 to 50% B from 2 to 20 min in a total run time of 30 min.

[2] = molecular target: T1, human amylin receptor (hAMYR3) (Homo sapiens, UniProt O60896+P30988); assay: Amylin receptor assay, method A (CRE-luciferase reporter, BHK cells); type: cell-based
T1 construct: host or cells: BHK cells (Hollex-1 line expressing hCTR(a) and CRE-Luc), further transfected with human RAMP3

[3] = molecular target: T2, human GLP-1 receptor (hGLP-1R) (Homo sapiens, UniProt P43220); assay: GLP-1 receptor assay, method A (CRE-luciferase reporter, BHK cells); type: cell-based
T2 construct: expressed in transfected cells
Method in brief: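 Albumin sensitivity is tested by running the assay both without HSA and with 1% (w/v) HSA. Frozen BHK cells carrying hGLP-1R and CRE-driven luciferase are incubated with compound for 3 hours at 37° C. Luminescence is then read with steadylite Plus.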

[4] = molecular target: T3, human GIP receptor (hGIPR) (Homo sapiens, UniProt P48546); assay: GIP receptor assay, method A (CRE-luciferase reporter, BHK cells); type: cell-based
T3 construct: expressed in transfected cells
T3 sequence (P48546 22-466): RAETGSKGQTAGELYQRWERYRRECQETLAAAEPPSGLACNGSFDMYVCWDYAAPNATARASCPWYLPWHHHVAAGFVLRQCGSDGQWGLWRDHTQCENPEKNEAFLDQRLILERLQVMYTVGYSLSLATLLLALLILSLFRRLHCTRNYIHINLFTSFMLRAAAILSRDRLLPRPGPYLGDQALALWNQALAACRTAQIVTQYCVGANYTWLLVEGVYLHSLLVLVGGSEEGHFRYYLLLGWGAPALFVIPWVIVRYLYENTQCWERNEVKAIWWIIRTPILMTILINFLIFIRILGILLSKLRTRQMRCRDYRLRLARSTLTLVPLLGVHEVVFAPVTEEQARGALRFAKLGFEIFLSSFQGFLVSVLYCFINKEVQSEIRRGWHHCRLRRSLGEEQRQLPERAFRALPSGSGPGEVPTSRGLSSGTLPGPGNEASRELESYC
Method in brief: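 BHK cells co-expressing hGIPR and a CRE-luciferase reporter, plated 21-23 h before assay, stimulated 3 h at 37 °C with compounds (7-point 10-fold titration, duplicates) in ovalbumin-containing DMEM buffer with or without 1% HSA final. Luminescence read; EC50 (pM) from four-parameter logistic fit with shared Hill slope.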

[5] = hAMYR3 Potency, 1% HSA, EC50, method A, in the presence of 1% HSA
[6] = method A, absence of HSA, read-out: hAMYR3 Potency, no HSA, EC50
[7] = hGLP-1R Potency, 1% HSA, EC50, method A, in the presence of 1% HSA
[8] = method A, absence of HSA, read-out: hGLP-1R Potency, no HSA, EC50
[9] = hGIPR Potency, 1% HSA, EC50, method A, in the presence of 1% HSA
[10] = method A, absence of HSA, read-out: hGIPR Potency, no HSA, EC50

T2 sequence (P43220 24-463): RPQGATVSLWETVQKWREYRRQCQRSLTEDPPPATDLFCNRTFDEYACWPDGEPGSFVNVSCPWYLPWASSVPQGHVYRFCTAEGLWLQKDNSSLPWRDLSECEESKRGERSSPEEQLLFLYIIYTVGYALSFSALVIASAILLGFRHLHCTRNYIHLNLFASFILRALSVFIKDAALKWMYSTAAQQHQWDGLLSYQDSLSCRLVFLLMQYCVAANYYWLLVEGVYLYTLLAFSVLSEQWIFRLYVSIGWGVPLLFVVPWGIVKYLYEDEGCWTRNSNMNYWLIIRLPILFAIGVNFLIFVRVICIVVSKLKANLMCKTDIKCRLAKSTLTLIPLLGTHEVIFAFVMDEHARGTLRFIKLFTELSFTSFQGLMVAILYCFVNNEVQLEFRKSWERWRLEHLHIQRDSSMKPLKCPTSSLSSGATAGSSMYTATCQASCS
T1 sequence (P30988 25-474): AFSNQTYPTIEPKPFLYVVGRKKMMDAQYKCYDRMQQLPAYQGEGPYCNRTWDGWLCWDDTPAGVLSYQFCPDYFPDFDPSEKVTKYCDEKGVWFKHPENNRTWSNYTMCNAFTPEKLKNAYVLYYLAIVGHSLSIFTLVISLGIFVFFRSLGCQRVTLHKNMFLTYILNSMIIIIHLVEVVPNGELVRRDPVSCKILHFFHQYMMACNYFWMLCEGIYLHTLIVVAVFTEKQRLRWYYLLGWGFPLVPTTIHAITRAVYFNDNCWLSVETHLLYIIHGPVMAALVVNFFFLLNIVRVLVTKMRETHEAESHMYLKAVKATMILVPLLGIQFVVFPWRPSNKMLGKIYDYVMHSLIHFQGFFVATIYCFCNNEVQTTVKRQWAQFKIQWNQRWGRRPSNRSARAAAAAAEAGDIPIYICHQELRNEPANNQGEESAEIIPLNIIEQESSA
T1 sequence (O60896 24-148): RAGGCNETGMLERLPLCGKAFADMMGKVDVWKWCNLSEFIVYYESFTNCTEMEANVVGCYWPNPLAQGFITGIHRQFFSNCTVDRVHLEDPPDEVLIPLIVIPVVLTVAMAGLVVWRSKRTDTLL

| Compound | Purity loss per week at 37° C. [1] [%] | EC50 [2, 5] [pM] | EC50 [2, 6] [pM] | EC50 [3, 7] [pM] | EC50 [3, 8] [pM] | EC50 [4, 9] [pM] | EC50 [4, 10] [pM] |
| --- | --- | --- | --- | --- | --- | --- | --- |
| H[Aib]HGTFTSDYSILLEEQAAREFIEWLLAGGPSSGAGQAPGQAPGASHLSTAQTQRLSAELHRLATLPK([AEEA-AEEA-γGlu-C18 diacid])TETGSGSP-NH2 [Compound 92] | 2.8 | 75.1 | 2.64 | 13.4 | 2.55 | 8.53 | 3.12 |
| H[Aib]HGTFTSDYSILLEEQAAREFIEWLLAGGPSSGEASHLSTAQTQRLSAELHRLATLPK([AEEA-AEEA-γGlu-C18 diacid])TETGSGSP-NH2 [Compound 84] | 2.9 | 175 | 4.41 | 25.9 | 3.31 | 11.6 | 3 |
| CC[C@H](C)[C@H](NC(=O)[C@H](CCC(=O)O)NC(=O)[C@H](CCC(=O)O)NC(=O)[C@H](CC(C)C)NC(=O)[C@H](CC(C)C)NC(=O)[C@H](CCCCNC(=O)COCCOCCNC(=O)COCCOCCNC(=O)CC[C@H](NC(=O)CCCCCCCCCCCCCCCCCCC(=O)O)C(=O)O)NC(=O)[C@H](CO)NC(=O)[C@H](Cc1ccc(O)cc1)NC(=O)[C@H](CC(=O)O)NC(=O)[C@H](CO)NC(=O)[C@@H](NC(=O)[C@H](Cc1ccccc1)NC(=O)[C@@H](NC(=O)CNC(=O)[C@H](CCC(=O)O)NC(=O)C(C)(C)NC(=O)[C@@H](N)Cc1ccc(O)cc1)[C@@H](C)O)[C@@H](C)O)C(=O)N[C@@H](C)C(=O)N[C@@H](C)C(=O)N[C@@H](CCCNC(=N)N)C(=O)N[C@@H](CCC(=O)O)C(=O)N[C@@H](Cc1ccccc1)C(=O)N[C@H](C(=O)N[C@@H](CCC(=O)O)C(=O)N[C@@H](Cc1c[nH]c2ccccc12)C(=O)N[C@@H](CC(C)C)C(=O)N[C@@H](CC(C)C)C(=O)N[C@@H](C)C(=O)NCC(=O)NCC(=O)N1CCC[C@H]1C(=O)N[C@@H](CO)C(=O)N[C@@H](CO)C(=O)NCC(=O)N[C@@H](C)C(=O)NCC(=O)N[C@@H](CCC(N)=O)C(=O)N[C@@H](C)C(=O)N1CCC[C@H]1C(=O)NCC(=O)N[C@@H](CCC(N)=O)C(=O)N[C@@H](C)C(=O)N1CCC[C@H]1C(=O)NCC(=O)N[C@@H](C)C(=O)N[C@@H](CO)C(=O)N[C@@H](Cc1c[nH]cn1)C(=O)N[C@@H](CC(C)C)C(=O)N[C@@H](CO)C(=O)N[C@H](C(=O)N[C@@H](C)C(=O)N[C@@H](CCC(N)=O)C(=O)N[C@@H](CC(C)C)C(=O)NCC(=O)N[C@@H](CCCNC(=N)N)C(=O)N[C@@H](CC(C)C)C(=O)N[C@@H](CO)C(=O)N[C@@H](C)C(=O)N[C@@H](CCC(=O)O)C(=O)N[C@@H](CC(C)C)C(=O)N[C@@H](Cc1c[nH]cn1)C(=O)N[C@@H](CCC(N)=O)C(=O)N[C@@H](CC(C)C)C(=O)N[C@@H](C)C(=O)N[C@H](C(=O)N[C@@H](CC(C)C)C(=O)N1CCC[C@H]1C(=O)N[C@@H](CCCNC(=N)N)C(=O)N[C@H](C(=O)N[C@@H](CCC(=O)O)C(=O)N[C@H](C(=O)NCC(=O)N[C@@H](CO)C(=O)NCC(=O)N[C@@H](CO)C(=O)N1CCC[C@H]1C(N)=O)[C@@H](C)O)[C@@H](C)O)[C@@H](C)O)[C@@H](C)O)[C@@H](C)CC [Compound 123] | 1.0 |  |  |  |  |  |  |
| CC[C@H](C)[C@H](NC(=O)[C@H](CCC(=O)O)NC(=O)[C@H](CCC(=O)O)NC(=O)[C@H](CC(C)C)NC(=O)[C@H](CC(C)C)NC(=O)[C@H](CCCCNC(=O)COCCOCCNC(=O)COCCOCCNC(=O)CC[C@H](NC(=O)CCCCCCCCCCCCCCCCCCC(=O)O)C(=O)O)NC(=O)[C@H](CO)NC(=O)[C@H](Cc1ccc(O)cc1)NC(=O)[C@H](CC(=O)O)NC(=O)[C@H](CO)NC(=O)[C@@H](NC(=O)[C@H](Cc1ccccc1)NC(=O)[C@@H](NC(=O)CNC(=O)[C@H](CCC(=O)O)NC(=O)C(C)(C)NC(=O)[C@@H](N)Cc1ccc(O)cc1)[C@@H](C)O)[C@@H](C)O)C(=O)N[C@@H](C)C(=O)N[C@@H](C)C(=O)N[C@@H](CCCNC(=N)N)C(=O)N[C@@H](CCC(=O)O)C(=O)N[C@@H](Cc1ccccc1)C(=O)N[C@H](C(=O)N[C@@H](CCC(=O)O)C(=O)N[C@@H](Cc1c[nH]c2ccccc12)C(=O)N[C@@H](CC(C)C)C(=O)N[C@@H](CC(C)C)C(=O)N[C@@H](C)C(=O)NCC(=O)NCC(=O)N1CCC[C@H]1C(=O)N[C@@H](CO)C(=O)N[C@@H](CO)C(=O)NCC(=O)N[C@@H](C)C(=O)NCC(=O)N[C@@H](C)C(=O)N[C@@H](CO)C(=O)N[C@@H](Cc1c[nH]cn1)C(=O)N[C@@H](CC(C)C)C(=O)N[C@@H](CO)C(=O)N[C@H](C(=O)N[C@@H](C)C(=O)N[C@@H](CCC(N)=O)C(=O)N[C@@H](CC(C)C)C(=O)NCC(=O)N[C@@H](CCCNC(=N)N)C(=O)N[C@@H](CC(C)C)C(=O)N[C@@H](CO)C(=O)N[C@@H](C)C(=O)N[C@@H](CCC(=O)O)C(=O)N[C@@H](CC(C)C)C(=O)N[C@@H](Cc1c[nH]cn1)C(=O)N[C@@H](CCC(N)=O)C(=O)N[C@@H](CC(C)C)C(=O)N[C@@H](C)C(=O)N[C@H](C(=O)N[C@@H](CCC(=O)O)C(=O)N1CCC[C@H]1C(=O)N[C@@H](CCCNC(=N)N)C(=O)N[C@H](C(=O)N[C@@H](CCC(=O)O)C(=O)N[C@H](C(=O)NCC(=O)N[C@@H](CO)C(=O)NCC(=O)N[C@@H](CO)C(=O)N1CCC[C@H]1C(N)=O)[C@@H](C)O)[C@@H](C)O)[C@@H](C)O)[C@@H](C)O)[C@@H](C)CC [Compound 184] | 1.0 |  |  |  |  |  |  |
| CC[C@H](C)[C@H](NC(=O)[C@H](CCC(=O)O)NC(=O)[C@H](CCC(=O)O)NC(=O)[C@H](CC(C)C)NC(=O)[C@H](CC(C)C)NC(=O)[C@@H](NC(=O)[C@H](CO)NC(=O)[C@H](Cc1ccc(O)cc1)NC(=O)[C@H](CC(=O)O)NC(=O)[C@H](CO)NC(=O)[C@@H](NC(=O)[C@H](Cc1ccccc1)NC(=O)[C@@H](NC(=O)CNC(=O)[C@H](CCC(=O)O)NC(=O)C(C)(C)NC(=O)[C@@H](N)Cc1ccc(O)cc1)[C@@H](C)O)[C@@H](C)O)[C@@H](C)CC)C(=O)N[C@@H](C)C(=O)N[C@@H](C)C(=O)N[C@@H](CCCNC(=N)N)C(=O)N[C@@H](CCC(=O)O)C(=O)N[C@@H](Cc1ccccc1)C(=O)N[C@H](C(=O)N[C@@H](CCC(=O)O)C(=O)N[C@@H](Cc1c[nH]c2ccccc12)C(=O)N[C@@H](CC(C)C)C(=O)N[C@@H](CC(C)C)C(=O)N[C@@H](C)C(=O)NCC(=O)NCC(=O)N1CCC[C@H]1C(=O)N[C@@H](CO)C(=O)N[C@@H](CO)C(=O)NCC(=O)N[C@@H](CCC(=O)O)C(=O)NCC(=O)N[C@@H](CCC(N)=O)C(=O)N[C@@H](C)C(=O)N1CCC[C@H]1C(=O)NCC(=O)N[C@@H](CCC(N)=O)C(=O)N[C@@H](C)C(=O)N1CCC[C@H]1C(=O)NCC(=O)N[C@@H](C)C(=O)N[C@@H](CO)C(=O)N[C@@H](Cc1c[nH]cn1)C(=O)N[C@@H](CC(C)C)C(=O)N[C@@H](CO)C(=O)N[C@H](C(=O)N[C@@H](C)C(=O)N[C@@H](CCC(N)=O)C(=O)N[C@H](C(=O)N[C@@H](CCC(N)=O)C(=O)N[C@@H](CCCNC(=N)N)C(=O)N[C@@H](CC(C)C)C(=O)N[C@@H](CO)C(=O)N[C@@H](C)C(=O)N[C@@H](CCC(=O)O)C(=O)N[C@@H](CC(C)C)C(=O)N[C@@H](Cc1c[nH]cn1)C(=O)N[C@@H](CCCCNC(=O)COCCOCCNC(=O)COCCOCCNC(=O)CC[C@H](NC(=O)CCCCCCCCCCCCCCCCCCC(=O)O)C(=O)O)C(=O)N[C@@H](CC(C)C)C(=O)N[C@@H](C)C(=O)N[C@H](C(=O)N[C@@H](CC(C)C)C(=O)N1CCC[C@H]1C(=O)N[C@@H](CCCNC(=N)N)C(=O)N[C@H](C(=O)N[C@@H](CCC(=O)O)C(=O)N[C@H](C(=O)NCC(=O)N[C@@H](CO)C(=O)NCC(=O)N[C@@H](CO)C(=O)N1CCC[C@H]1C(N)=O)[C@@H](C)O)[C@@H](C)O)[C@@H](C)O)[C@@H](C)O)[C@@H](C)O)[C@@H](C)CC [Compound 147] | 1.0 |  |  |  |  |  |  |
| H[Aib]HGTFTSDYSILLEEQAAREFIEWLLAGGPSK([AEEA-AEEA-γGlu-C18 diacid])GAGQAPGQAPGASHLSTAQTQRLSAELHELATLPRTETGSGSP-NH2 [Compound 47] | 2.6 | 55.8 | 2.57 | 67.5 | 3.15 | 162 | 2.02 |
